# Results: paper PMC12040169 (PLOS Biology, 2025)
# Experiments:
# in vitro [1] = assay: in vitro; parameters: Viability of infected HeLa host cells, resazurin conversion, bulk resorufin fluorescence relative to DMSO; conditions: human, hela cells; bulk resorufin, mean of 2
# [2] = test system: T1, C. trachomatis L2/434/Bu expressing GFP (CTL2-GFP); assay: microbe, parasite or virus in culture; parameters: C. trachomatis total inclusion area by high-content imaging, normalised to DMSO; conditions: Chlamydia trachomatis, HeLa, 28.5 h; total inclusion area; read-out: % of control remaining
# T1 construct: L2/434/Bu GFP intracellular growth in HeLa cells
# Method in brief: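 Read-out combines bulk fluorescence and imaging: GFP tracks chlamydial growth, resorufin tracks host cell viability. Plates were then fixed and Hoechst-stained so inclusions and nuclei could be imaged and counted per well.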
# in vitro [3] = conditions: human, hela cells, % viability
# [4] = test system: T2, CTL2-GFP (C. trachomatis L2/434/Bu, GFP-expressing); assay: microbe, parasite or virus in culture; parameters: Intracellular C. trachomatis growth in HeLa cells, bulk GFP fluorescence relative to DMSO; conditions: Chlamydia trachomatis, HeLa, 28.5 h; bulk GFP, mean of 2; read-out: % of control remaining
# T2 construct: L2/434/Bu, GFP-expressing
# Method: MICs were calculated as described above.
Structure (SMILES),"viability at 28.5 h, 1 µM (in vitro [1]) [%]","viability at 28.5 h, 5 µM (in vitro [1]) [%]","viability at 28.5 h, 10 µM (in vitro [1]) [%]",activity at 1 µM [2] [%],activity at 5 µM [2] [%],activity at 10 µM [2] [%],"viability at 28.5 h, 10 µM (in vitro [3]) [%]",activity at 1 µM [4] [%],activity at 5 µM [4] [%],activity at 10 µM [4] [%]
C/C(=N\Nc1nnc2c(n1)[nH]c1ccccc12)c1ccccn1 [CBK262054],87.3,69.7,70.2,18.7,2.45,1.6,94.5,18,12.2,10.5
CCc1nnc(NS(=O)(=O)c2ccc(N/C=C3\C(=O)N(c4ccc(C)cc4)N=C3C)cc2)s1 [CBK262395],96,101,91.7,116,36.9,35,100,87,17.9,18.6
O=[N+]([O-])c1ccc2[nH]c3c(c2c1)CCCC3NC1CCN(CCc2ccccc2)CC1 (centres unmarked) [CBK262874],91.5,84.8,76.1,60.6,15.1,3.02,77.1,58.5,25.9,16.1
O=C(N/N=C/c1ccc(Sc2cccc3cccnc23)o1)c1cccc(F)c1 [CBK263263],101,99.9,108,21,4.03,0.368,87.9,12,3.14,0
Cc1cc(NS(=O)(=O)c2ccc(Nc3nc(-c4ccccn4)cs3)cc2)no1 [CBK263302B],90.8,93.6,99.8,76.5,93.3,56.4,93.1,105,88.6,49.5
Cc1noc(NS(=O)(=O)c2ccc(NC(=O)COc3ccccc3Br)cc2)c1C [CBK263918],96.5,96.5,95.3,91.6,88.5,31,89.4,97.7,57.6,25.5
Cc1c(OCc2cnn(-c3ccccc3)c2)ccc(-c2n[nH]c(C(F)(F)F)c2-c2ccccc2)c1O [CBK264962],109,90.9,97,82.3,57.5,20.9,104,89.8,73.9,49.7
CC(C)(CNS(=O)(=O)c1ccc(F)cc1)CNS(=O)(=O)c1ccc(F)cc1 [CBK265455],112,111,116,80.8,21.4,1.74,111,79.4,13.3,0
Cc1ccc2nsnc2c1S(=O)(=O)Nc1cccc2cccnc12 [CBK267051],76.3,60.6,60.9,87.7,88.5,34.4,46.9,108,79.7,47.8
O=C(CSCc1c(F)cccc1Cl)Nc1ccc(S(=O)(=O)N2CCCCC2)cc1 [CBK268034],91.9,104,101,90.3,35.6,13.2,90.4,82.4,35.6,27.1
O=C(Nc1ccc(S(=O)(=O)Nc2ncccn2)cc1)c1ccc2c(c1)OCCO2 [CBK268132],84,94.2,95.2,89.9,82.3,42.6,96.7,135,76.4,55.4
Cc1cc(NS(=O)(=O)c2ccc(NC(=S)NC(=O)C(C)(C)C)cc2)no1 [CBK268877],93.4,96.5,99.1,74.7,64,35.4,95.7,123,78.8,33.7
COc1ccc2[nH]cc(CCNC(=O)c3ccc([N+](=O)[O-])c(C)c3)c2c1 [CBK269426],85.4,90.5,84.5,140,55.8,21.5,100,149,100,62.1
O=S(=O)(Nc1nccs1)c1ccc(Nc2ncnc3ccccc23)cc1 [CBK269487C],93.3,99,86.3,140,53.6,28.6,93.8,141,72.9,35
O=C(Nc1nccs1)c1cc(C2CCN(C(=O)CC3CCCCC3)C2)nc2ccccc12 (centres unmarked) [CBK285586],92.6,93,93.3,115,119,48.9,116,134,122,35.7
COc1cccc(C(=O)N2CCC(Cc3ccc(-c4cccc(C)c4)cc3)(C(N)=O)CC2)c1 [CBK285779],96.4,98.8,90.2,113,114,62.9,115,119,104,49.9
Cc1cc2cc(C(=O)N3CCC(c4c(C(=O)NC(C)C)sc5ccccc45)C3)ccc2o1 (centres unmarked) [CBK285873],90,97.6,96.2,150,85.1,51.5,87.1,148,48.7,31.6
O=C(c1ccc(-c2ccc(F)cc2)o1)N1C[C@H]2CC[C@](O)(c3ccc(F)cc3)[C@H]2C1 [CBK286415],91.9,86.5,91.6,0.419,0.168,0.106,94.1,6.79,7.93,15.1
Cc1ccc(N2C(=O)c3[nH]nc(C)c3C2c2ccc(O)cc2)cc1 (centres unmarked) [CBK287915],98,107,106,111,93.4,54.6,94.7,108,89.5,54.1
Cc1c(C(=O)Nc2ccc(Cl)cc2)sc2c1C(c1cccnc1)CC(=O)N2 (centres unmarked) [CBK288233],101,98.8,97.1,100,56.2,44.9,87.1,99.5,55.5,83.6
Cc1cccc(Nc2nc(C)cc3n[nH]c(=O)n23)c1 [CBK288477],102,104,81.5,74.4,33.7,17.7,89.2,134,57.5,29.6
COc1ccc(C=CC(=O)Nc2sc3c(c2C(=O)O)CCCC3)cc1OC [CBK296103],91.1,87.4,89.7,117,69.8,22.5,117,118,85.9,27.4
CCCn1c(NC(=O)C(C)Oc2ccc(Cl)cc2Cl)nc2ccccc21 (centres unmarked) [CBK296979],88,93.1,89.7,137,94.8,58.2,108,129,103,54.1
